Legend:
Type in all cases: in vivo
[1] = test system: oat, wild (wild oat, Avena fatua); experiment: Test D pre-/postemergence: oat, wild
From the text: (§1) Seeds of plant species selected from bluegrass (annual bluegrass, Poa annua), blackgrass (Alopecurus myosuroides), canarygrass (Phalaris minor), chickweed (common chickweed, Stellaria media), galium (catchweed bedstraw, Galium aparine), bromegrass, downy (downy bromegrass, Bromus tectorum), field poppy (Papaver rhoeas), field violet (Viola arvensis), foxtail, green (green foxtail, Setaria viridis), deadnettle (henbit deadnettle, Lamium amplexicaule), ryegrass, Italian (Italian ryegrass, Lolium multiflorum), kochia (Kochia scoparia), lambsquarters (Chenopodium album), oilseed rape (Brassica napus), pigweed (Amaranthus retroflexus), Russian thistle (Salsola iberica), chamomile (scentless chamomile, Matricaria inodora), speedwell (bird's-eye speedwell, Veronica persica), barley, spring (spring barley, Hordeum vulgare), wheat, spring (spring wheat, Triticum aestivum), buckwheat, wild (wild buckwheat, Polygonum convolvulus), mustard, wild (wild mustard, Sinapis arvensis), oat, wild (wild oat, Avena fatua), radish, wild (wild radish, Raphanus raphanistrum), windgrass (Apera spica-venti), barley, winter (winter barley, Hordeum vulgare), and wheat, winter (winter wheat, Triticum aestivum) were planted into a silt loam soil and treated preemergence with test chemicals formulated in a non-phytotoxic solvent mixture which included a surfactant. At the same time, these same crop and weed species were planted in pots containing the planting medium comprising spaghnum peat moss, vermiculite, wetting agent and starter nutrients and treated with postemergence applications of the test chemicals formulated in the same manner. Plants ranged in height from 2 to 18 cm (1- to 4-leaf stage).
(§2) Treated plants and controls were maintained in a controlled growth environment for 14 to 21 days after which time all species were compared to controls and visually evaluated. Plant response ratings, summarized in Table D, are based on a scale of 0 to 100 where 0 is no effect and 100 is complete control. A dash (-) response means no test result.

[2] = test system: mustard, wild (wild mustard, Sinapis arvensis); experiment: Test D pre-/postemergence: mustard, wild
From the text: as §1, §2

[3] = test system: oilseed rape (Brassica napus); experiment: Test D pre-/postemergence: oilseed rape
From the text: as §1, §2

[4] = test system: foxtail, green (green foxtail, Setaria viridis); experiment: Test D pre-/postemergence: foxtail, green
From the text: as §1, §2

[5] = test system: bluegrass (annual bluegrass, Poa annua); experiment: Test D pre-/postemergence: bluegrass
From the text: as §1, §2

[6] = test system: blackgrass (Alopecurus myosuroides); experiment: Test D pre-/postemergence: blackgrass
From the text: as §1, §2

[7] = Postemergence, 31 g ai/ha, scale 0 to 100 (0 no effect, 100 complete control)
[8] = Postemergence, 62 g ai/ha, scale 0 to 100 (0 no effect, 100 complete control)
[9] = Postemergence, 125 g ai/ha, scale 0 to 100, 0 no effect, 100 complete control
[10] = Postemergence, 250 g ai/ha, scale 0 to 100 (0 no effect, 100 complete control)
[11] = Postemergence, 16 g ai/ha, scale 0 to 100
[12] = Preemergence, 31 g ai/ha, scale 0 to 100, 0 no effect, 100 complete control
[13] = Preemergence, 62 g ai/ha, scale 0 to 100
[14] = Preemergence, 125 g ai/ha, scale 0 to 100
[15] = Preemergence, 250 g ai/ha, scale 0 to 100

Cc1nn(-c2ccc(C(F)(F)F)cn2)nc1Oc1ccnc(C(F)(F)F)c1 [Compound 23]
Plant response rating: Oat, Wild [1, 7]: 10
Plant response rating: Oat, Wild [1, 8]: 10
Plant response rating: Oat, Wild [1, 9]: 15
Plant response rating: Oat, Wild [1, 10]: 20
Plant response rating, Oat, Wild [1, 11]: 10
Plant response rating: Mustard, Wild [2, 7]: 40
Plant response rating: Mustard, Wild [2, 8]: 85
Plant response rating: Mustard, Wild [2, 9]: 100
Plant response rating: Mustard, Wild [2, 10]: 100
Plant response rating, Mustard, Wild [2, 11]: 20
Plant response rating: Oilseed Rape [3, 7]: 50
Plant response rating: Oilseed Rape [3, 8]: 75
Plant response rating: Oilseed Rape [3, 9]: 85
Plant response rating: Oilseed Rape [3, 10]: 95
Plant response rating, Oilseed Rape [3, 11]: 50
Plant response rating: Foxtail, Green [4, 7]: 15
Plant response rating: Foxtail, Green [4, 8]: 20
Plant response rating: Foxtail, Green [4, 9]: 25
Plant response rating: Foxtail, Green [4, 10]: 25
Plant response rating, Foxtail, Green [4, 11]: 15
Plant response rating: Bluegrass [5, 7]: 20
Plant response rating: Bluegrass [5, 8]: 25
Plant response rating: Bluegrass [5, 9]: 30
Plant response rating: Bluegrass [5, 10]: 40
Plant response rating, Bluegrass [5, 11]: 20
Plant response rating: Blackgrass [6, 7]: 10
Plant response rating: Blackgrass [6, 8]: 10
Plant response rating: Blackgrass [6, 9]: 20
Plant response rating: Blackgrass [6, 10]: 30
Plant response rating, Blackgrass [6, 11]: 5

FC(F)(F)COc1nn(-c2ccc(C(F)(F)F)cc2)nc1Cc1ccnc(C(F)(F)F)c1 [Compound 14, 4-[[5-(2,2,2-trifluoroethoxy)-2-[4-(trifluoromethyl)phenyl]-2H-1,2,3-triazol-4-yl]methyl]-2-(trifluoromethyl)pyridine]
Plant response rating: Oat, Wild [1, 7]: 15
Plant response rating: Oat, Wild [1, 8]: 25
Plant response rating: Oat, Wild [1, 9]: 40
Plant response rating: Oat, Wild [1, 10]: 55
Plant response rating, Oat, Wild [1, 12]: 0
Plant response rating, Oat, Wild [1, 13]: 20
Plant response rating, Oat, Wild [1, 14]: 20
Plant response rating, Oat, Wild [1, 15]: 50
Plant response rating: Mustard, Wild [2, 7]: 50
Plant response rating: Mustard, Wild [2, 8]: 90
Plant response rating: Mustard, Wild [2, 9]: 100
Plant response rating: Mustard, Wild [2, 10]: 100
Plant response rating, Mustard, Wild [2, 12]: 0
Plant response rating, Mustard, Wild [2, 13]: 50
Plant response rating, Mustard, Wild [2, 14]: 90
Plant response rating, Mustard, Wild [2, 15]: 95
Plant response rating: Oilseed Rape [3, 7]: 30
Plant response rating: Oilseed Rape [3, 8]: 70
Plant response rating: Oilseed Rape [3, 9]: 90
Plant response rating: Oilseed Rape [3, 10]: 100
Plant response rating, Oilseed Rape [3, 12]: 0
Plant response rating, Oilseed Rape [3, 13]: 0
Plant response rating, Oilseed Rape [3, 14]: 30
Plant response rating, Oilseed Rape [3, 15]: 40
Plant response rating: Foxtail, Green [4, 7]: 10
Plant response rating: Foxtail, Green [4, 8]: 25
Plant response rating: Foxtail, Green [4, 9]: 30
Plant response rating: Foxtail, Green [4, 10]: 95
Plant response rating, Foxtail, Green [4, 12]: 0
Plant response rating, Foxtail, Green [4, 13]: 10
Plant response rating, Foxtail, Green [4, 14]: 75
Plant response rating, Foxtail, Green [4, 15]: 100
Plant response rating: Bluegrass [5, 7]: 20
Plant response rating: Bluegrass [5, 8]: 35
Plant response rating: Bluegrass [5, 9]: 70
Plant response rating: Bluegrass [5, 10]: 95
Plant response rating, Bluegrass [5, 12]: 0
Plant response rating, Bluegrass [5, 13]: 30
Plant response rating, Bluegrass [5, 14]: 85
Plant response rating, Bluegrass [5, 15]: 100
Plant response rating: Blackgrass [6, 7]: 25
Plant response rating: Blackgrass [6, 8]: 35
Plant response rating: Blackgrass [6, 9]: 70
Plant response rating: Blackgrass [6, 10]: 85
Plant response rating, Blackgrass [6, 12]: 0
Plant response rating, Blackgrass [6, 13]: 0
Plant response rating, Blackgrass [6, 14]: 10
Plant response rating, Blackgrass [6, 15]: 60

COc1nn(-c2ccc(C(F)(F)F)cc2)nc1Cc1ccnc(C(F)(F)F)c1 [Compound 15, 4-[[5-methoxy-2-[4-(trifluoromethyl)phenyl]-2H-1,2,3-triazol-4-yl]methyl]-2-(trifluoromethyl)pyridine]
Plant response rating: Oat, Wild [1, 7]: 10
Plant response rating: Oat, Wild [1, 8]: 10
Plant response rating: Oat, Wild [1, 9]: 30
Plant response rating: Oat, Wild [1, 10]: 40
Plant response rating, Oat, Wild [1, 11]: 10
Plant response rating, Oat, Wild [1, 13]: 15
Plant response rating, Oat, Wild [1, 14]: 40
Plant response rating, Oat, Wild [1, 15]: 100
Plant response rating: Mustard, Wild [2, 7]: 70
Plant response rating: Mustard, Wild [2, 8]: 100
Plant response rating: Mustard, Wild [2, 9]: 100
Plant response rating: Mustard, Wild [2, 10]: 100
Plant response rating, Mustard, Wild [2, 11]: 0
Plant response rating, Mustard, Wild [2, 12]: 100
Plant response rating, Mustard, Wild [2, 13]: 100
Plant response rating, Mustard, Wild [2, 14]: 100
Plant response rating, Mustard, Wild [2, 15]: 100
Plant response rating: Oilseed Rape [3, 7]: 100
Plant response rating: Oilseed Rape [3, 8]: 70
Plant response rating: Oilseed Rape [3, 9]: 100
Plant response rating: Oilseed Rape [3, 10]: 100
Plant response rating, Oilseed Rape [3, 11]: 70
Plant response rating, Oilseed Rape [3, 12]: 0
Plant response rating, Oilseed Rape [3, 13]: 10
Plant response rating, Oilseed Rape [3, 14]: 20
Plant response rating, Oilseed Rape [3, 15]: 75
Plant response rating: Foxtail, Green [4, 7]: 30
Plant response rating: Foxtail, Green [4, 8]: 80
Plant response rating: Foxtail, Green [4, 9]: 75
Plant response rating: Foxtail, Green [4, 10]: 100
Plant response rating, Foxtail, Green [4, 11]: 15
Plant response rating, Foxtail, Green [4, 12]: 70
Plant response rating, Foxtail, Green [4, 13]: 100
Plant response rating, Foxtail, Green [4, 14]: 100
Plant response rating, Foxtail, Green [4, 15]: 100
Plant response rating: Bluegrass [5, 7]: 10
Plant response rating: Bluegrass [5, 8]: 25
Plant response rating: Bluegrass [5, 9]: 50
Plant response rating: Bluegrass [5, 10]: 95
Plant response rating, Bluegrass [5, 11]: 0
Plant response rating, Bluegrass [5, 12]: 0
Plant response rating, Bluegrass [5, 13]: 5
Plant response rating, Bluegrass [5, 14]: 80
Plant response rating, Bluegrass [5, 15]: 100
Plant response rating: Blackgrass [6, 7]: 15
Plant response rating: Blackgrass [6, 8]: 30
Plant response rating: Blackgrass [6, 9]: 50
Plant response rating: Blackgrass [6, 10]: 85
Plant response rating, Blackgrass [6, 11]: 15
Plant response rating, Blackgrass [6, 12]: 0
Plant response rating, Blackgrass [6, 13]: 25
Plant response rating, Blackgrass [6, 14]: 80
Plant response rating, Blackgrass [6, 15]: 90

COc1nn(-c2ccc(C(F)(F)F)cc2)nc1Cc1ccnc(C(F)F)c1 [Compound 138]
Plant response rating: Oat, Wild [1, 7]: 20
Plant response rating: Oat, Wild [1, 8]: 30
Plant response rating: Oat, Wild [1, 9]: 50
Plant response rating: Oat, Wild [1, 10]: 75
Plant response rating, Oat, Wild [1, 11]: 10
Plant response rating: Mustard, Wild [2, 7]: 90
Plant response rating: Mustard, Wild [2, 8]: 95
Plant response rating: Mustard, Wild [2, 9]: 100
Plant response rating: Mustard, Wild [2, 10]: 100
Plant response rating, Mustard, Wild [2, 11]: 75
Plant response rating: Oilseed Rape [3, 7]: 95
Plant response rating: Oilseed Rape [3, 8]: 100
Plant response rating: Oilseed Rape [3, 9]: 100
Plant response rating: Oilseed Rape [3, 10]: 100
Plant response rating, Oilseed Rape [3, 11]: 85
Plant response rating: Foxtail, Green [4, 7]: 40
Plant response rating: Foxtail, Green [4, 8]: 75
Plant response rating: Foxtail, Green [4, 9]: 80
Plant response rating: Foxtail, Green [4, 10]: 100
Plant response rating, Foxtail, Green [4, 11]: 20
Plant response rating: Bluegrass [5, 7]: 30
Plant response rating: Bluegrass [5, 8]: 50
Plant response rating: Bluegrass [5, 9]: 70
Plant response rating: Bluegrass [5, 10]: 85
Plant response rating, Bluegrass [5, 11]: 20
Plant response rating: Blackgrass [6, 7]: 50
Plant response rating: Blackgrass [6, 8]: 70
Plant response rating: Blackgrass [6, 9]: 80
Plant response rating: Blackgrass [6, 10]: 85
Plant response rating, Blackgrass [6, 11]: 30
